Consider 68 sequences from the supplement of paper PMC11208160.

This series in a line: recombinant UMI read abundance after kanamycin selection (control-corrected) (log10(CPM+1)); higher = more efficient recombination; extreme values may be limits of the assay; sequences stand for … in AGTGCAGAGAAAATCGGCCAGTTTTCTCTGCCTGCAGTCCGCATGCCGTGGGACCCCTTGGGTTCTAACCTGTTGCCTAGATTTATGCAGCGGACTGCCTTTCTCCCAAAGTGATAAACCGG…AGGTTGGTTTCACT; site = the 11-nt donor. In a few lines:
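Reported values are log10(CPM+1) from a pooled Escherichia coli screen of donor and donor-binding-loop pairs for the IS621 bridge recombinase. Selection used IPTG (0.07 mM) plus kanamycin, against unselected plating, each in two replicates. Recombinant UMIs were amplified across the donor–target junction, sequenced, converted to CPM, averaged over replicates and scaled by control-derived factors.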
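Further: IS621 bridge recombinase in Escherichia coli cells against a fixed T5 target plasmid.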

As for “ATCTATACATGGACCGGTTTTCCCGGTAATCCGTATTTGAC (site ATCTATACTTT)”, the “recombinant UMI read abundance (log10)” value came to 0.0131.

With “ATCTATACATGGACCGGTTTTCCCGGTAATCCGTATTTGAC (site ATCTATCCTGT)”, the “recombinant UMI read abundance (log10)” value stood at 0. The result for “ATCTATACATGGACCGGTTTTCCCGGTAATCCGTATTTGAC (site ATCTATGCTGT)” reads 0.

In the case of “ATCTATACATGGACCGGTTTTCCCGGTAATCCGTATTTGAC (site ATCTATTCTGT)”, the “recombinant UMI read abundance (log10)” value worked out at 0.327. Next, “ATCTATACATGGACCGGTTTTCCCGGTAATCCGTATTTGAC (site ATCTCTACTGT)”: 0. The result for “ATCTATACATGGACCGGTTTTCCCGGTAATCCGTATTTGAC (site ATCTGTACTGT)” reads 0.

On to “ATCTATACATGGACCGGTTTTCCCGGTAATCCGTATTTGAC (site ATCTTTACTGT)”, for which the “recombinant UMI read abundance (log10)” value was 0. The result for “ATCTATACATGGACCGGTTTTCCCGGTAATCCGTATTTGAC (site ATGTATACTGT)” reads 1.03. Regarding “ATCTATACATGGACCGGTTTTCCCGGTAATCCGTATTTGAC (site ATTTATACTGT)”, the “recombinant UMI read abundance (log10)” value amounted to 0.

Regarding “ATCTATACATGGACCGGTTTTCCCGGTAATCCGTATTTGAC (site CTCTATACTGT)”, the “recombinant UMI read abundance (log10)” value is 2.17. The result for “ATCTATACATGGACCGGTTTTCCCGGTAATCCGTATTTGAC (site GTCTATACTGT)” reads 0.424; that for “ATCTATACATGGACCGGTTTTCCCGGTAATCCGTATTTGAC (site TTCTATACTGT)”, 1.19; that for “ATCTATGCATGGACCGGTTTTCCCGGTAATCCGTATTTGAC (site ATCTATACTGT)”, 2.11. The result for “ATCTATGCATGGACCGGTTTTCCCGGTAATCCGTATTTGAC (site ATCTATCCTGT)” reads 0; that for “ATCTATGCATGGACCGGTTTTCCCGGTAATCCGTATTTGAC (site ATCTATGCTGT)”, 2.57. The result for “ATCTATGCATGGACCGGTTTTCCCGGTAATCCGTATTTGAC (site ATCTATTCTGT)” reads 0; that for “ATCTCAGCATGGACCGGTTTTCCCGGTAATCCGTATTTGGG (site AACTCAGCTCC)”, 0.0145; that for “ATCTCAGCATGGACCGGTTTTCCCGGTAATCCGTATTTGGG (site ACCTCAGCTCC)”, 0.01. Regarding “ATCTCAGCATGGACCGGTTTTCCCGGTAATCCGTATTTGGG (site AGCTCAGCTCC)”, the “recombinant UMI read abundance (log10)” value was determined as 0.0129. For the sequence “ATCTCAGCATGGACCGGTTTTCCCGGTAATCCGTATTTGGG (site ATCTCAGCTCC)”, the “recombinant UMI read abundance (log10)” value was found to be 0.323.

Turning to “ATCTCTACATGGACCGGTTTTCCCGGTAATCCGTATTTGAC (site ATCTATACTGT)”, the “recombinant UMI read abundance (log10)” value was determined as 0.264. The result for “ATCTCTACATGGACCGGTTTTCCCGGTAATCCGTATTTGAC (site ATCTCTACTGT)” reads 2.29.

In the case of “ATCTCTACATGGACCGGTTTTCCCGGTAATCCGTATTTGAC (site ATCTGTACTGT)”, the “recombinant UMI read abundance (log10)” value stood at 0.00346. The result for “ATCTCTACATGGACCGGTTTTCCCGGTAATCCGTATTTGAC (site ATCTTTACTGT)” reads 0; that for “ATCTGGACATGGACCGGTTTTCCCGGTAATCCGTATTTGCC (site ATCTGGACTGG)”, 1.25; that for “ATCTGTGCATGGACCGGTTTTCCCGGTAATCCGTATTTGGC (site ATCTGTGCTGC)”, 0.

Take “ATCTTCCCATGGACCGGTTTTCCCGGTAATCCGTATTTGCA (site ATCTTCCCTTG)”: the “recombinant UMI read abundance (log10)” value came to 0.523.

For “ATCTTTACATGGACCGGTTTTCCCGGTAATCCGTATTTGAC (site ATCTATACTGT)”, the “recombinant UMI read abundance (log10)” value was 0.832. The result for “ATCTTTACATGGACCGGTTTTCCCGGTAATCCGTATTTGAC (site ATCTCTACTGT)” reads 0.

Take “ATCTTTACATGGACCGGTTTTCCCGGTAATCCGTATTTGAC (site ATCTGTACTGT)”: the “recombinant UMI read abundance (log10)” value amounted to 0.247. Turning to “ATCTTTACATGGACCGGTTTTCCCGGTAATCCGTATTTGAC (site ATCTTTACTGT)”, the “recombinant UMI read abundance (log10)” value is 0.661.

For the sequence “ATGAACACATGGACCGGTTTTCCCGGTAATCCGTATTTGTG (site ATGAACACTCA)”, the “recombinant UMI read abundance (log10)” value was found to be 1.96. The result for “ATGACATCATGGACCGGTTTTCCCGGTAATCCGTATTTGAT (site ATGACATCTAT)” reads 2.14; that for “ATGACGGCATGGACCGGTTTTCCCGGTAATCCGTATTTGAG (site ATGACGGCTCT)”, 1.39.

Turning to “ATGACTCCATGGACCGGTTTTCCCGGTAATCCGTATTTGGA (site ATGACTCCTTC)”, the “recombinant UMI read abundance (log10)” value was determined as 0.437.

As for “ATGACTGCATGGACCGGTTTTCCCGGTAATCCGTATTTGCG (site ATGACTGCTCG)”, the “recombinant UMI read abundance (log10)” value came to 1.7. The result for “ATGAGCGCATGGACCGGTTTTCCCGGTAATCCGTATTTGGG (site ATGAGCGCTCC)” reads 0.00562; that for “ATGAGGACATGGACCGGTTTTCCCGGTAATCCGTATTTGCT (site ATGAGGACTAG)”, 2.89. Next, “ATGATATCATGGACCGGTTTTCCCGGTAATCCGTATTTGCA (site ATGATATCTTG)”: 2.39; “ATGATCTCATGGACCGGTTTTCCCGGTAATCCGTATTTGCG (site ATGATCTCTCG)”: 3.11. Next, “ATGCAAACATGGACCGGTTTTCCCGGTAATCCGTATTTGGA (site ATGCAAACTTC)”: 1.69; “ATGCAGACATGGACCGGTTTTCCCGGTAATCCGTATTTGTT (site ATGCAGACTAA)”: 1.92; “ATGCCATCATGGACCGGTTTTCCCGGTAATCCGTATTTGCA (site ATGCCATCTTG)”: 1.98. Take “ATGCGTTCATGGACCGGTTTTCCCGGTAATCCGTATTTGGG (site ATGCGTTCTCC)”: the “recombinant UMI read abundance (log10)” value worked out at 1.05. The result for “ATGGAAACATGGACCGGTTTTCCCGGTAATCCGTATTTGCG (site ATGGAAACTCG)” reads 2.39; that for “ATGGAGACATGGACCGGTTTTCCCGGTAATCCGTATTTGTA (site ATGGAGACTTA)”, 2.41. Turning to “ATGGAGACATGGACCGGTTTTCCCGGTAATCCGTATTTGTG (site ATGGAGACTCA)”, the “recombinant UMI read abundance (log10)” value worked out at 1.96. Take “ATGGAGGCATGGACCGGTTTTCCCGGTAATCCGTATTTGGC (site ATGAAGGCTGC)”: the “recombinant UMI read abundance (log10)” value was determined as 2.07. Next, “ATGGAGGCATGGACCGGTTTTCCCGGTAATCCGTATTTGGC (site ATGCAGGCTGC)”: 1.03. The result for “ATGGAGGCATGGACCGGTTTTCCCGGTAATCCGTATTTGGC (site ATGGAGGCTGC)” reads 2.53. With “ATGGAGGCATGGACCGGTTTTCCCGGTAATCCGTATTTGGC (site ATGTAGGCTGC)”, the “recombinant UMI read abundance (log10)” value is 1.48. Next, “ATGGAGGCATGGACCGGTTTTCCCGGTAATCCGTATTTGTG (site ATGGAGGCTCA)”: 1.11; “ATGGAGGCATGGACCGGTTTTCCCGGTAATCCGTATTTGTG (site CTGGAGGCTCA)”: 0.764; “ATGGAGGCATGGACCGGTTTTCCCGGTAATCCGTATTTGTG (site GTGGAGGCTCA)”: 0.0176.

In the case of “ATGGAGGCATGGACCGGTTTTCCCGGTAATCCGTATTTGTG (site TTGGAGGCTCA)”, the “recombinant UMI read abundance (log10)” value is 0.765. The result for “ATGGCTACATGGACCGGTTTTCCCGGTAATCCGTATTTGGG (site ATGGCTACTCC)” reads 0.356; that for “ATGTAAGCATGGACCGGTTTTCCCGGTAATCCGTATTTGGC (site ATGTAAGCTGC)”, 3.24.

Take “ATGTAAGCATGGACCGGTTTTCCCGGTAATCCGTATTTGGC (site ATGTACGCTGC)”: the “recombinant UMI read abundance (log10)” value was found to be 0.982. Next, “ATGTAAGCATGGACCGGTTTTCCCGGTAATCCGTATTTGGC (site ATGTAGGCTGC)”: 2.04; “ATGTAAGCATGGACCGGTTTTCCCGGTAATCCGTATTTGGC (site ATGTATGCTGC)”: 0.

As for “ATGTACGCATGGACCGGTTTTCCCGGTAATCCGTATTTGGT (site ATGTACGCTAC)”, the “recombinant UMI read abundance (log10)” value amounted to 1.42. The result for “ATGTAGGCATGGACCGGTTTTCCCGGTAATCCGTATTTGCC (site ATGTAGGCTGA)” reads 1.76; that for “ATGTAGGCATGGACCGGTTTTCCCGGTAATCCGTATTTGCC (site ATGTAGGCTGC)”, 0.

With “ATGTAGGCATGGACCGGTTTTCCCGGTAATCCGTATTTGCC (site ATGTAGGCTGG)”, the “recombinant UMI read abundance (log10)” value came to 2.21. Next, “ATGTAGGCATGGACCGGTTTTCCCGGTAATCCGTATTTGCC (site ATGTAGGCTGT)”: 1.7; “ATGTAGTCATGGACCGGTTTTCCCGGTAATCCGTATTTGGT (site ATGTAGTCTAC)”: 2.81; “ATTAAGTCATGGACCGGTTTTCCCGGTAATCCGTATTTGTA (site ATTAAGTCTTA)”: 2.58. Regarding “ATTAGAACATGGACCGGTTTTCCCGGTAATCCGTATTTGAG (site AATAGAACTCT)”, the “recombinant UMI read abundance (log10)” value is 0.403.
